Columns and labels:
[1] = Water solubility; format: physicochemical
[2] = system: intact rats; experiment: Lipid absorption in intact rats after oral vegetable oil with DIMEB; format: in vivo; settings: for Plasma triglyceride concentration / Free fatty acid concentration in the plasma: normal rats; for Plasma triglyceride concentration: 2 ml vegetable oil + 50 mg DIMEB oral; for Free fatty acid concentration in the plasma: 2 ml vegetable oil + DIMEB oral
Protocol: The effect of DIMEB on the absorption of a vegetable oil was investigated in intact rats. The aim of this experiment was to elucidate whether the emulsification and intestinal absorption of the vegetable oil were stimulated by DIMEB in addition to the physiological bile functions. […] Thereafter, the triglyceride and free fatty acid concentration of the blood plasma were examined at various intervals. (Tables II and III). The triglyceride concentration of the plasma was determined by using the method of E. Van Handel [Clin. […] G. Dumcombe [Biochem.

[3] = system: intact rats; experiment: Absorption of 3H-stearic acid with oral DIMEB in intact rats; format: in vivo, CFY female rats; settings: for Radioactivity in 10 ml of blood: 11.3 mg 3H-stearic acid + 50 mg DIMEB oral
Protocol: The effect of DIMEB on the absorption of ^3 H-stearic acid was studied in intact rats. The aim of this experiment was to make clear if the absorption of stearic acid was stimulated by DIMEB under the conditions of physiological bile functions. The animals were starved overnight before and during the experiment but received water ad libitum. One group of the experimental animals (CFY female rats with an average body weight of 180 g; 3 animals ) received 13 mg of ^3 H-stearic acid (specific radioactivity: 147.22 kBq/mg), whereas the other group (3 animals) was given 11.3 mg of ^3 H-stearic acid and 50 mg of DIMEB in 2 ml of distilled water. The substances were suspended in the distilled water ultrasonically. Thereafter, the radioactivity level of the blood was measured at various time intervals by using the liquid scintillation method (Table X).

[4] = system: bile-deficient rats; experiment: Absorption of 3H-stearic acid with oral DIMEB in bile-deficient rats (Example 10); format: in vivo; settings: for Radioactivity in 10 ml of blood: 14.7 mg 3H-stearic acid + 50 mg DIMEB oral
Protocol: The substitution of the bile by DIMEB in bile-deficiency was studied in rats after ligating the bile duct.
After being starved for 24 hours, the animals were subjected to the bile duct-ligation under nembutal anaesthesia. The absorption was investigated in the 48th hour after starving the animals overnight. The animals were also starved in the course of the examination; but received water ad libitum. One group (3 animals) received 12.8 mg of ^3 H-stearic acid (specific radioactivity: 171.12 kBq/mg), whereas the other group (3 animals) was administered 14.7 mg of ^3 H-stearic acid and 50 mg of DIMEB in 2 ml of distilled water. The substances were suspended in the distilled water ultrasonically. Thereafter, the radioactivity level of the blood was measured at various intervals, by using the liquid scintillation method (Table XI).

## COC[C@H]1O[C@@H]2O[C@H]3[C@H](O)[C@@H](OC)[C@@H](O[C@H]4[C@H](O)[C@@H](OC)[C@@H](O[C@H]5[C@H](O)[C@@H](OC)[C@@H](O[C@H]6[C@H](O)[C@@H](OC)[C@@H](O[C@H]7[C@H](O)[C@@H](OC)[C@@H](O[C@H]8[C@H](O)[C@@H](OC)[C@@H](O[C@H]1[C@H](O)[C@H]2OC)O[C@@H]8COC)O[C@@H]7COC)O[C@@H]6COC)O[C@@H]5COC)O[C@@H]4COC)O[C@@H]3COC [DIMEB, heptakis(2,6-di-O-methyl)-β-cyclodextrin]
[1]
  Water solubility: very high water solubility
[2]; intact rats, oil + 50 mg DIMEB, 4th hour
  Increase of plasma triglyceride concentration: more than 100%
[2]; Hour 1
  Plasma triglyceride concentration: 44 ± 6 mg/100 ml
  Free fatty acid concentration in the plasma: 326 ± 15 mg/100 ml
[2]; Hour 2.5
  Plasma triglyceride concentration: 61 ± 18 mg/100 ml
  Free fatty acid concentration in the plasma: 494 ± 183 mg/100 ml
[2]; Hour 4
  Plasma triglyceride concentration: 121 ± 7 mg/100 ml
  Free fatty acid concentration in the plasma: 641 ± 126 mg/100 ml
[2]; Hour 6
  Plasma triglyceride concentration: 122 ± 15 mg/100 ml
  Free fatty acid concentration in the plasma: 347 ± 65 mg/100 ml
[3]; 1 h, animal 4
  Radioactivity in 10 ml of blood: 1.71 percentage
[3]; 1 h, animal 5
  Radioactivity in 10 ml of blood: 1.74 percentage
[3]; 1 h, animal 6
  Radioactivity in 10 ml of blood: 2.23 percentage
[3]; 1 h, mean
  Radioactivity in 10 ml of blood: 1.89 percentage
[3]; 2 h, animal 4
  Radioactivity in 10 ml of blood: 1.84 percentage
[3]; 2 h, animal 5
  Radioactivity in 10 ml of blood: 1.88 percentage
[3]; 2 h, animal 6
  Radioactivity in 10 ml of blood: 2.00 percentage
[3]; 2 h, mean
  Radioactivity in 10 ml of blood: 1.91 percentage
[3]; 3 h, animal 4
  Radioactivity in 10 ml of blood: 2.03 percentage
[3]; 3 h, animal 5
  Radioactivity in 10 ml of blood: 1.75 percentage
[3]; 3 h, animal 6
  Radioactivity in 10 ml of blood: 2.13 percentage
[3]; 3 h, mean
  Radioactivity in 10 ml of blood: 1.97 percentage
[3]; 4 h, animal 4
  Radioactivity in 10 ml of blood: 2.12 percentage
[3]; 4 h, animal 5
  Radioactivity in 10 ml of blood: 1.71 percentage
[3]; 4 h, animal 6
  Radioactivity in 10 ml of blood: 1.99 percentage
[3]; 4 h, mean
  Radioactivity in 10 ml of blood: 1.94 percentage
[3]; 5 h, animal 4
  Radioactivity in 10 ml of blood: 2.10 percentage
[3]; 5 h, animal 5
  Radioactivity in 10 ml of blood: 1.76 percentage
[3]; 5 h, animal 6
  Radioactivity in 10 ml of blood: 2.00 percentage
[3]; 5 h, mean
  Radioactivity in 10 ml of blood: 1.95 percentage
[3]; 6 h, animal 4
  Radioactivity in 10 ml of blood: 2.16 percentage
[3]; 6 h, animal 5
  Radioactivity in 10 ml of blood: 1.75 percentage
[3]; 6 h, animal 6
  Radioactivity in 10 ml of blood: 2.04 percentage
[3]; 6 h, mean
  Radioactivity in 10 ml of blood: 1.98 percentage
[3]; 8 h, animal 4
  Radioactivity in 10 ml of blood: 2.16 percentage
[3]; 8 h, animal 5
  Radioactivity in 10 ml of blood: 1.84 percentage
[3]; 8 h, animal 6
  Radioactivity in 10 ml of blood: 1.94 percentage
[3]; 8 h, mean
  Radioactivity in 10 ml of blood: 1.98 percentage
[3]; 10 h, animal 4
  Radioactivity in 10 ml of blood: 2.20 percentage
[3]; 10 h, animal 5
  Radioactivity in 10 ml of blood: 2.02 percentage
[3]; 10 h, animal 6
  Radioactivity in 10 ml of blood: 2.21 percentage
[3]; 10 h, mean
  Radioactivity in 10 ml of blood: 2.14 percentage
[3]; 24 h, animal 4
  Radioactivity in 10 ml of blood: 2.84 percentage
[3]; 24 h, animal 5
  Radioactivity in 10 ml of blood: 2.94 percentage
[3]; 24 h, animal 6
  Radioactivity in 10 ml of blood: 2.39 percentage
[3]; 24 h, mean
  Radioactivity in 10 ml of blood: 2.72 percentage
[3]; 24th hour, both groups
  Radioactivity of the blood, percent of the administered activity: 2.7%
[3]; physiological bile functions, 50 mg DIMEB
  Absorption-enhancing effect on 3H-stearic acid: did not show any absorption-enhancing effect
[4]; 1 h, animal 4
  Radioactivity in 10 ml of blood: 0.86 percentage
[4]; 1 h, animal 5
  Radioactivity in 10 ml of blood: 3.45 percentage
[4]; 1 h, animal 6
  Radioactivity in 10 ml of blood: 1.61 percentage
[4]; 1 h, mean
  Radioactivity in 10 ml of blood: 1.97 percentage
[4]; 2 h, animal 4
  Radioactivity in 10 ml of blood: 1.05 percentage
[4]; 2 h, animal 5
  Radioactivity in 10 ml of blood: 3.25 percentage
[4]; 2 h, animal 6
  Radioactivity in 10 ml of blood: 2.56 percentage
[4]; 2 h, mean
  Radioactivity in 10 ml of blood: 2.29 percentage
[4]; 3 h, animal 4
  Radioactivity in 10 ml of blood: 1.14 percentage
[4]; 3 h, animal 5
  Radioactivity in 10 ml of blood: 3.22 percentage
[4]; 3 h, animal 6
  Radioactivity in 10 ml of blood: 2.39 percentage
[4]; 3 h, mean
  Radioactivity in 10 ml of blood: 2.25 percentage
[4]; 4 h, animal 4
  Radioactivity in 10 ml of blood: 1.19 percentage
[4]; 4 h, animal 5
  Radioactivity in 10 ml of blood: 3.06 percentage
[4]; 4 h, animal 6
  Radioactivity in 10 ml of blood: 2.28 percentage
[4]; 4 h, mean
  Radioactivity in 10 ml of blood: 2.18 percentage
[4]; 5 h, animal 4
  Radioactivity in 10 ml of blood: 1.24 percentage
[4]; 5 h, animal 5
  Radioactivity in 10 ml of blood: 3.08 percentage
[4]; 5 h, animal 6
  Radioactivity in 10 ml of blood: 2.27 percentage
[4]; 5 h, mean
  Radioactivity in 10 ml of blood: 2.20 percentage
[4]; 6 h, animal 4
  Radioactivity in 10 ml of blood: 1.25 percentage
[4]; 6 h, animal 5
  Radioactivity in 10 ml of blood: 2.91 percentage
[4]; 6 h, animal 6
  Radioactivity in 10 ml of blood: 2.56 percentage
[4]; 6 h, mean
  Radioactivity in 10 ml of blood: 2.24 percentage
[4]; 7 h, animal 4
  Radioactivity in 10 ml of blood: 1.33 percentage
[4]; 7 h, animal 5
  Radioactivity in 10 ml of blood: 3.03 percentage
[4]; 7 h, animal 6
  Radioactivity in 10 ml of blood: 2.67 percentage
[4]; 7 h, mean
  Radioactivity in 10 ml of blood: 2.34 percentage
[4]; 8 h, animal 4
  Radioactivity in 10 ml of blood: 1.37 percentage
[4]; 8 h, animal 5
  Radioactivity in 10 ml of blood: 3.13 percentage
[4]; 8 h, animal 6
  Radioactivity in 10 ml of blood: 2.58 percentage
[4]; 8 h, mean
  Radioactivity in 10 ml of blood: 2.36 percentage
[4]; 10 h, animal 4
  Radioactivity in 10 ml of blood: 1.29 percentage
[4]; 10 h, animal 5
  Radioactivity in 10 ml of blood: 3.26 percentage
[4]; 10 h, animal 6
  Radioactivity in 10 ml of blood: 2.67 percentage
[4]; 10 h, mean
  Radioactivity in 10 ml of blood: 2.41 percentage
[4]; 24 h, animal 4
  Radioactivity in 10 ml of blood: 1.60 percentage
[4]; 24 h, animal 5
  Radioactivity in 10 ml of blood: 4.56 percentage
[4]; 24 h, animal 6
  Radioactivity in 10 ml of blood: 4.00 percentage
[4]; 24 h, mean
  Radioactivity in 10 ml of blood: 3.39 percentage
[4]; 24th hour
  Blood level relative to animals treated with stearic acid only: 1.4 times

From US4774232A, “Bile-substituting method of treatment for the promotion of fat digestion” (Chinoin Gyogyszer Es Vegyeszeti Termak Ek Gyara Rt, priority 1985, dated 1988)
